Article PMC12775434, “Ultra-large virtual screening unveils potent agonists of the neuromodulatory orphan receptor GPR139” (Nature Communications, 2025)
“And” between values parts separate entries of the source, which are not always exact repeats. Equal entries are not always repeated.

Target: T1, GPR139 (Homo sapiens, UniProt Q6DWJ6)
T1 sequence (Q6DWJ6 1-353): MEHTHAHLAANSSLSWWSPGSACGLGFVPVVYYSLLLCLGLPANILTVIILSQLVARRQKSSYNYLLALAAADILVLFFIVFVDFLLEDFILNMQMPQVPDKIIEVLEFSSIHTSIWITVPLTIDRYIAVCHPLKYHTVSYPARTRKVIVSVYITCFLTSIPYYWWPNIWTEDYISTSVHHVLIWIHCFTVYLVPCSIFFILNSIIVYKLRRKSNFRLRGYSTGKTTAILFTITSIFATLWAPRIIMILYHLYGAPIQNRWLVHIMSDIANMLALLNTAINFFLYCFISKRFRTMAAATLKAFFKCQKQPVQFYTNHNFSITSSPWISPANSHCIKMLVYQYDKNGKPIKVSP
Assay: Ca2+ mobilization assay, HEK293A cells transiently expressing GPR139
Format: cell-based
Details: for Emax: HEK293-A, normalized to JNJ-63533054 (JNJ(S)); for Emax / EC50: HEK293A transient; for EC50: Supplementary Table 6, read-out: pEC50 Ca2+ (converted); for Ca2+ signal (% of JNJ-63533054): replicate experiments
Method: Primary screening and pharmacological characterization of compounds were performed using a CHO-K1 cell line that stably expresses human GPR139 (GPR139-CHOk1). The GPR139-CHOk1 cell line was kindly provided by H. Lundbeck A/S, Denmark[24]. GPR139-CHOk1 cells were grown in Ham’s F-12 Kaighn’s Modification Medium (ThermoFisher #21127030) supplemented with 10% dialyzed fetal bovine serum (US origin, ThermoFisher #26400044), 100 units/mL Penicillin-Streptomycin (ThermoFisher #15140122), and 1 mg/mL Geneticin (ThermoFisher #11811031). […] M1R-CHOk1 cells were purchased from The Missouri S&T cDNA Resource Center (#CEM100TN00). M1R-CHOk1 cells were grown in Ham’s F12 Medium (ThermoFisher #21765029) supplemented with 10% fetal bovine serum (Brazilian origin, ThermoFisher #10270106), 100 units/mL Penicillin-Streptomycin, and 0.25 mg/mL Geneticin. HEK293A cells transiently transfected with GPR139 were used for additional pharmacological assessment of signaling pathways activated by GPR139. HEK239A cells were generously provided by Dr. Asuka Inoue, Tohoku University, Japan. HEK293A cells were grown in Dulbecco’s Modified Eagle Medium (ThermoFisher #31966047) supplemented with 10% dialyzed fetal bovine serum and 100 units/mL Penicillin-Streptomycin. Cell lines were maintained at 37 °C in humidified incubator equilibrated with 5% CO2.
30,000 GPR139- or M1R-CHOk1 cells/well were seeded in black clear bottom tissue culture treated 96-well plates (Greiner #655090) and grown for 20–24 h. Cells were washed with HEPES buffer (Hank’s Balanced Salt Solution (HBBS) supplemented with 20 mM HEPES, 1 mM MgCl2, and 1 mM CaCl2; pH 7.4). Cells were loaded with 50 µL of 2 µM Fluo-4 AM dye (ThermoFisher #F14202) in HEPES buffer supplemented with 2.5 mM probenecid and 0.01% Pluronic F-68 (ThermoFisher #24040032) for 1 h at 37 °C. Cells were washed with HEPES buffer. 50 µL HEPES buffer supplemented with 2.5 mM probenecid was added, and the cells were incubated for 10 min at 37 °C before measurement. 50 µL test compounds diluted in HEPES buffer from DMSO stocks (final DMSO concentration of maximally 0.3%) were added automatically after baseline measurements. The intracellular calcium mobilization was measured on a FlexStation 3 Multimode Microplate Reader (Molecular Devices) at 37 °C with filters for excitation of 485 nm and emission of 525 nm.
HEK293A cells were reverse-transfected with human GPR139 for Ca^2+ mobilization experiments with transiently expressed GPR139. The construct has been generated and described previously by Nøhr et al.. DNA and Lipofectamine 2000 Transfection Reagent (ThermoFisher #11668019) were separately diluted in Opti-MEM I Reduced Serum Medium (ThermoFisher #31985070). 10 ng GPR139 DNA and 250 nL Lipofectamine were used for each well. The dilutions were incubated at room temperature for 5 min. Then, DNA and Lipofectamine dilutions were combined in 1:1 volumetric ratio and incubated at room temperature for 20 min to obtain the transfection solutions. 10 µL transfection solution and 20,000 cells in 100 µL growth medium were distributed in each well of black clear bottom tissue culture treated 96-well plates that were previously coated with poly-D-lysine (Sigma-Aldrich #P0899). Cells were grown for approximately 48 h. A calcium mobilization assay was performed as described.
Pharmacological data and statistical analyses were performed in GraphPad Prism v9–10 (Graphpad Software Inc., San Diego, CA), which are also specifically described in the figure and table legends. The functional assay responses were normalized to buffer (0%) and Lundbeck Cmp 1a or JNJ-63533054 (100%), for Ca^2+ and IP1 experiments in the GPR139-CHOk1 stable cell line or Ca^2+, G protein activation, and arrestin-3 recruitment experiments in the HEK293A cells transiently transfected with GPR139, respectively. Data are from at least three independent experiments, unless stated otherwise. […]

Row | SMILES | Emax | EC50 | Ca2+ signal (% of JNJ-63533054) (log [Compound] M -5.0) | Ca2+ signal (% of JNJ-63533054) (log [Compound] M -5.5) | Ca2+ signal (% of JNJ-63533054) (log [Compound] M -6.0) | Ca2+ signal (% of JNJ-63533054) (log [Compound] M -6.5) | Ca2+ signal (% of JNJ-63533054) (log [Compound] M -7.0) | Ca2+ signal (% of JNJ-63533054) (log [Compound] M -7.5) | Ca2+ signal (% of JNJ-63533054) (log [Compound] M -8.0) | Ca2+ signal (% of JNJ-63533054) (log [Compound] M -8.5) | Ca2+ signal (% of JNJ-63533054) (log [Compound] M -9.0) | Ca2+ signal (% of JNJ-63533054) (log [Compound] M -5.0, listed as JNJ (S)) | Ca2+ signal (% of JNJ-63533054) (log [Compound] M -5.5, listed as JNJ (S)) | Ca2+ signal (% of JNJ-63533054) (log [Compound] M -6.0, listed as JNJ (S)) | Ca2+ signal (% of JNJ-63533054) (log [Compound] M -6.5, listed as JNJ (S)) | Ca2+ signal (% of JNJ-63533054) (log [Compound] M -7.0, listed as JNJ (S)) | Ca2+ signal (% of JNJ-63533054) (log [Compound] M -7.5, listed as JNJ (S)) | Ca2+ signal (% of JNJ-63533054) (log [Compound] M -8.0, listed as JNJ (S)) | Ca2+ signal (% of JNJ-63533054) (log [Compound] M -8.5, listed as JNJ (S)) | Ca2+ signal (% of JNJ-63533054) (log [Compound] M -9.0, listed as JNJ (S))
1 | Cc1cscc1-c1nc(CC(=O)N[C@H](C)c2ccccc2)no1 [1.1(R)] | 139 ± 24% | 398 nM | 181 % of JNJ-63533054 and 86 % of JNJ-63533054 and 180 % of JNJ-63533054 | 143 % of JNJ-63533054 and 96 % of JNJ-63533054 and 154 % of JNJ-63533054 | 90 % of JNJ-63533054 and 77 % of JNJ-63533054 and 95 % of JNJ-63533054 | 70 % of JNJ-63533054 and 52 % of JNJ-63533054 and 66 % of JNJ-63533054 | 15 % of JNJ-63533054 and 41 % of JNJ-63533054 and 28 % of JNJ-63533054 | -6.33 % of JNJ-63533054 and 15 % of JNJ-63533054 and 7 % of JNJ-63533054 | -9 % of JNJ-63533054 and 14 % of JNJ-63533054 and -7 % of JNJ-63533054 | 4 % of JNJ-63533054 and 2.33 % of JNJ-63533054 and -0.667 % of JNJ-63533054 | 8 % of JNJ-63533054 and 0.333 % of JNJ-63533054 and -15 % of JNJ-63533054 | – | – | – | – | – | – | – | – | –
2 | Cc1cscc1-c1nc(CC(=O)N[C@@H](C)c2ccccc2)no1 [1.1(S)] | 146 ± 16% | 12.6 nM | 135 % of JNJ-63533054 and 150 % of JNJ-63533054 | 108 % of JNJ-63533054 and 167 % of JNJ-63533054 | 164 % of JNJ-63533054 and 119 % of JNJ-63533054 and 118 % of JNJ-63533054 | 143 % of JNJ-63533054 and 116 % of JNJ-63533054 and 108 % of JNJ-63533054 | 137 % of JNJ-63533054 and 106 % of JNJ-63533054 and 101 % of JNJ-63533054 | 103 % of JNJ-63533054 and 92 % of JNJ-63533054 and 129 % of JNJ-63533054 | 70 % of JNJ-63533054 and 74 % of JNJ-63533054 and 57 % of JNJ-63533054 | 28 % of JNJ-63533054 and 33 % of JNJ-63533054 and 37 % of JNJ-63533054 | 29 % of JNJ-63533054 and 19 % of JNJ-63533054 and 13 % of JNJ-63533054 | – | – | – | – | – | – | – | – | –
3 | CC(NC(=O)CNC(=O)c1cccc(Cl)c1)c1ccccc1 (centres unmarked) [JNJ-63533054, reference compound] | 133 ± 14% | 15.8 nM | – | – | – | – | – | – | – | – | – | 174 % of JNJ-63533054 and 107 % of JNJ-63533054 and 106 % of JNJ-63533054 | 140 % of JNJ-63533054 and 98 % of JNJ-63533054 and 168 % of JNJ-63533054 | 143 % of JNJ-63533054 and 109 % of JNJ-63533054 and 138 % of JNJ-63533054 | 110 % of JNJ-63533054 and 107 % of JNJ-63533054 and 98 % of JNJ-63533054 | 101 % of JNJ-63533054 and 88 % of JNJ-63533054 and 92 % of JNJ-63533054 | 90 % of JNJ-63533054 and 115 % of JNJ-63533054 and 68 % of JNJ-63533054 | 51 % of JNJ-63533054 and 82 % of JNJ-63533054 and 41 % of JNJ-63533054 | 37 % of JNJ-63533054 and 28 % of JNJ-63533054 and 33 % of JNJ-63533054 | 13 % of JNJ-63533054 and 3.67 % of JNJ-63533054 and 12 % of JNJ-63533054
4 | C[C@@H](NC(=O)CNC(=O)c1cccc(Cl)c1)c1ccccc1 [JNJ(R), reference compound] | 101 ± 18% | 1260 nM | 95 % of JNJ-63533054 and 63 % of JNJ-63533054 and 134 % of JNJ-63533054 | 58 % of JNJ-63533054 and 81 % of JNJ-63533054 (2×) | 27 % of JNJ-63533054 and 52 % of JNJ-63533054 and 38 % of JNJ-63533054 | 14 % of JNJ-63533054 and 29 % of JNJ-63533054 and 4.33 % of JNJ-63533054 | 7 % of JNJ-63533054 and 9 % of JNJ-63533054 and -10 % of JNJ-63533054 | 5 % of JNJ-63533054 and 9 % of JNJ-63533054 and -13 % of JNJ-63533054 | -3.33 % of JNJ-63533054 and 8 % of JNJ-63533054 and -14 % of JNJ-63533054 | -0.667 % of JNJ-63533054 and 11 % of JNJ-63533054 and -10 % of JNJ-63533054 | -2.67 % of JNJ-63533054 and 15 % of JNJ-63533054 and -6 % of JNJ-63533054 | – | – | – | – | – | – | – | – | –
